Laboratory results: patent publication US20080139797A1, “OLIGONUCLEOTIDES CONTAINING HIGH CONCENTRATIONS OF GUANINE MONOMERS” (INTEGRATED DNA TECHNOLOGIES, INC., priority 2006, published 2008)

Experiment: Solubility of monomers and BTT in 1:1 mixes of acetonitrile and a solvent
Format: physicochemical
Method: The BTT (MW 192.2., water content ≦75 ppm) was supplied by emp Biotech GmbH (catalog no. NC-0101-1K, charge/lot no. 050904). The dT (MW 744.83), dG^ibu (MW 839.92), dA^bz (MW 857.93), dC^bz (MW 833.93) monomers were supplied by Proligo. The acetonitrile (MeCN) has a viscosity of 0.345 cP at 25° C. and a dipole moment of 3.92 D.
74.5 mg (100 μmol) of dT monomer was weighed out into each of 7 screw-topped 10 ml vials. 84 mg (100 μmol) of dG^ibu monomer was weighed out into each of 7 screw-topped 10 ml vials. 86 mg (100 μmol) of dA^bz monomer was weighed out into each of 7 screw-topped 10 ml vials. 83 mg (100 μmol) of dC^bz monomer was weighed out into each of 7 screw-topped 10 ml vials. 228 mg (1.2 mmol) of BTT was weighed out into each of 7 screw-topped 10 ml vials.
Six different solvent mixes were prepared by mixing 10 ml of dry acetonitrile with 10 ml of one of the 6 different solvents listed above in separate dry bottles under argon.
To each separate vial of T monomer was added 1 ml of one of the 6 different solvent mixes or pure acetonitrile. The vials were quickly closed and agitated gently. This was repeated with the vials of dG, dA and dC monomers.
To each separate vial of BTT was added 4 ml of one of the 6 solvent mixes.

- dissolution of BTT (0.3 M, solvent mixes, all cases except HFIP/MeCN): practically instantaneous
- solubility of BTT (at 0.3 M in all 5 mixes (acetonitrile 1:1 with NMP, DMA, TMU, DMSO, sulfolane)): soluble
- dissolution of BTT (pure acetonitrile, compared with the solvent mixes, gentle warming required for rapid dissolution): not as fast
SMILES: c1ccc(CSc2nnn[nH]2)cc1 [BTT, 5-benzylthiotetrazole]
